Data taken from ChEMBL document CHEMBL5356966, “A dual mechanism with H2S inhibition and membrane damage of morusin from Morus alba Linn. against MDR-MRSA” (2024).
Values after ≈ are worked out from the molar mass of the structure shown. Active and inactive are the calls of the source. The calls are words filed in the database; no cut-off is given here.

How the values were obtained:
Staphylococcus aureus [1] = assay: Antibacterial activity Staphylococcus aureus assessed as inhibition of bacterial growth incubated for 24 hrs by CLSI based analysis; type: functional
Enterococcus [2] = assay: Antibacterial activity vancomycin-resistant Enterococcus assessed as inhibition of bacterial growth incubated for 24 hrs by CLSI based analysis; type: functional
Cell membrane [3] = assay: Disruption of bacterial cell membrane in methicilin-resistant Staphylococcus aureus 003 assessed as increase in green fluorescence intensity incubated for 1 hr by DAPI/PI staning based confocal laser microscopic analysis
Staphylococcus aureus [4] = assay: Antibacterial activity methicillin-resistant Staphylococcus aureus 003 assessed as inhibition of bacterial growth incubated for 24 hrs by CLSI based analysis; type: functional
Staphylococcus aureus [5] = assay: Antibacterial activity methicillin-resistant Staphylococcus aureus 011 assessed as inhibition of bacterial growth incubated for 24 hrs by CLSI based analysis; type: functional
Cell membrane [6] = assay: Induction of inner membrane permeability in methicillin-resistant Staphylococcus aureus 003 assessed as fold change in MIC in presence of peptidoglycan; type: subcellular
Staphylococcus aureus [7] = assay: Antibacterial activity methicillin-resistant Staphylococcus aureus 003 assessed as increase in fluorescence intensity at 1 time MIC; type: functional
Staphylococcus aureus [8] = assay: Bactericidal activity methicillin-resistant Staphylococcus aureus 003 assessed as inhibition of bacterial growth incubated for 24 hrs by CLSI based analysis; type: functional
Staphylococcus aureus [9] = assay: In vivo antibacterial activity against methicilin-resistant Staphylococcus aureus infected in ICR mouse skin infection model assessed as wound area at 5 mg/kg, ip preadministered with compound for 24 hrs followed by bacterial infection and measured after 3 days; type: functional; conditions: time 96 hrs
Staphylococcus aureus [10] = assay: Bactericidal activity against Staphylococcus aureus at 2 to 4 times MIC measured after 30 mins by time kill assay; type: functional, organism-based
Cell membrane [11] = assay: Induction of inner membrane permeability in methicillin-resistant Staphylococcus aureus 003 assessed as increase in fluorescence intensity incubated for 30 mins
Staphylococcus aureus [12] = assay: Antibacterial activity methicillin-resistant Staphylococcus aureus 003 assessed as increase in intracellular ATP level incubated for 30 mins; type: functional, organism-based
Enterococcus [13] = assay: Antibacterial activity vancomycin-resistant Enterococcus assessed as decrease in intracellular pH at 4 time MIC measured up to 74 mins; type: functional, organism-based
Staphylococcus aureus [14] = assay: Antibacterial activity methicillin-resistant Staphylococcus aureus 003 assessed as downregulation of fabG expression by qRT-PCR analysis; type: functional, organism-based
Staphylococcus aureus [15] = assay: Bactericidal activity against methicilin-resistant Staphylococcus aureus 003 at 8 times MIC measured after 24 hrs by time kill assay; type: functional, organism-based
Staphylococcus aureus [16] = assay: Antibacterial activity methicillin-resistant Staphylococcus aureus 003 assessed as ROS accumulation at 2 to 8 times MIC incubated for 60 mins; type: functional, organism-based
Staphylococcus aureus [17] = assay: Antibacterial activity methicillin-resistant Staphylococcus aureus 003 assessed as decrease in intracellular pH at 4 time MIC measured up to 74 mins; type: functional, organism-based
Staphylococcus aureus [18] = assay: Bactericidal activity methicillin-resistant Staphylococcus aureus 011 assessed as inhibition of bacterial growth incubated for 24 hrs by CLSI based analysis; type: functional
Staphylococcus aureus [19] = assay: Antibacterial activity methicillin-resistant Staphylococcus aureus 003 under […] condition at pH 5.5 to 9.5; type: functional, organism-based
Cell membrane [20] = assay: Induction of inner membrane permeability in vancomycin-resistant Enterococcus assessed as increase in fluorescence intensity incubated for 30 mins
Staphylococcus aureus [21] = assay: Antibacterial activity methicillin-resistant Staphylococcus aureus 003 assessed as inhibition of H2S production at 1/4 to 1/8 times MIC; type: functional, organism-based
Staphylococcus aureus [22] = assay: In vivo antibacterial activity against methicilin-resistant Staphylococcus aureus infected in ICR mouse skin infection model assessed as wound area at 10 mg/kg, ip preadministered with compound for 24 hrs followed by bacterial infection and measured after 3 days; type: functional; conditions: time 96 hrs
Cell membrane [23] = assay: Induction of inner membrane permeability in Escherichia coli assessed as increase in fluorescence intensity measured for 15 mins in presence of Polymyxin B sulfate
Staphylococcus aureus [24] = assay: In vivo antibacterial activity against methicilin-resistant Staphylococcus aureus infected in ICR mouse skin infection model assessed as reduction in bacterial burden at 20 mg/kg, ip preadministered with compound for 24 hrs followed by bacterial infection and measured after 3 days; type: functional; design: scale not given: the % may be the effect or the level left; conditions: time 96 hrs
Staphylococcus aureus [25] = assay: Bactericidal activity against Staphylococcus aureus at 2 to 4 times MIC measured after 24 hrs by time kill assay; type: functional, organism-based
Staphylococcus aureus [26] = assay: In vivo antibacterial activity against methicilin-resistant Staphylococcus aureus infected in ICR mouse skin infection model assessed as reduction in bacterial burden at 10 mg/kg, ip preadministered with compound for 24 hrs followed by bacterial infection and measured after 3 days; type: functional; design: scale not given: the % may be the effect or the level left; conditions: time 96 hrs
Staphylococcus aureus [27] = assay: Antibacterial activity methicillin-resistant Staphylococcus aureus 003 assessed as downregulation of fabF expression by qRT-PCR analysis; type: functional, organism-based
Cell membrane [28] = assay: Induction of inner membrane permeability in methicillin-resistant Staphylococcus aureus 003 assessed as fold change in MIC in presence of phosphatidylglycerol; type: subcellular
Staphylococcus aureus [29] = assay: Bactericidal activity against methicilin-resistant Staphylococcus aureus 003 at 2 to 4 times MIC measured after 24 hrs by time kill assay; type: functional, organism-based
Escherichia coli = assay: Antibacterial activity Escherichia coli assessed as inhibition of bacterial growth incubated for 24 hrs by CLSI based analysis; type: functional
Staphylococcus aureus [30] = assay: Induction of resistance development in methicilin-resistant Staphylococcus aureus incubated for 24 hrs treated over 20 serial passages by broth microdilution analysis; type: functional, organism-based
Cell membrane [31] = assay: Induction of inner membrane permeability in methicillin-resistant Staphylococcus aureus 003 assessed as fold change in MIC in presence of cardiolipin; type: subcellular
Enterococcus [32] = assay: Bactericidal activity vancomycin-resistant Enterococcus assessed as inhibition of bacterial growth incubated for 24 hrs by CLSI based analysis; type: functional
Staphylococcus aureus [33] = assay: Antibacterial activity methicillin-resistant Staphylococcus aureus 003 assessed as downregulation of fabZ expression by qRT-PCR analysis; type: functional, organism-based
Staphylococcus aureus [34] = assay: In vivo antibacterial activity against methicilin-resistant Staphylococcus aureus infected in ICR mouse skin infection model assessed as wound area at 20 mg/kg, ip preadministered with compound for 24 hrs followed by bacterial infection and measured after 3 days; type: functional; conditions: time 96 hrs
Staphylococcus aureus [35] = assay: Antibacterial activity methicillin-resistant Staphylococcus aureus 003 assessed as inhibition of H2S production at 1/4 times MIC; type: functional
Cell membrane [36] = assay: Disruption of bacterial cell membrane in methicilin-resistant Staphylococcus aureus 003 assessed as as appearance of wrinkled cell incubated for 1 hr by DAPI/PI staning based confocal laser microscopic analysis; type: subcellular
Staphylococcus aureus [37] = assay: Induction of resistance development in methicilin-resistant Staphylococcus aureus 003 incubated for 24 hrs treated over 11 serial passages by broth microdilution analysis; type: functional, organism-based
Staphylococcus aureus [38] = assay: Antibacterial activity methicillin-resistant Staphylococcus aureus 003 assessed as decrease in membrane fluidity incubated for 50 mins; type: functional, organism-based
Staphylococcus aureus [39] = assay: Induction of resistance development Staphylococcus aureus incubated for 24 hrs treated over 11 serial passages by broth microdilution analysis; type: functional, organism-based
Acinetobacter baumannii = assay: Antibacterial activity Acinetobacter baumannii assessed as inhibition of bacterial growth incubated for 24 hrs by CLSI based analysis; type: functional
Staphylococcus aureus [40] = assay: Antibacterial activity methicillin-resistant Staphylococcus aureus 003 assessed as downregulation of plsY expression by qRT-PCR analysis; type: functional, organism-based
Staphylococcus aureus [41] = assay: Bactericidal activity Staphylococcus aureus assessed as inhibition of bacterial growth incubated for 24 hrs by CLSI based analysis; type: functional
Cell membrane [42] = assay: Disruption of bacterial cell membrane in vancomycin-resistant Enterococcus assessed as as appearance of wrinkled cell incubated for 1 hr by DAPI/PI staning based confocal laser microscopic analysis
Staphylococcus aureus [43] = assay: Antibacterial activity methicillin-resistant Staphylococcus aureus 003 assessed as increase in fluorescence intensity by DiSC3(5) dye based analysis; type: functional, organism-based
Cell membrane [44] = assay: Induction of inner membrane permeability in methicillin-resistant Staphylococcus aureus 003 assessed as fold change in MIC in presence of phosphatidylethanolamine; type: subcellular
Staphylococcus aureus [45] = assay: Antibacterial activity methicillin-resistant Staphylococcus aureus 003 assessed as increase in fluorescence intensity at 4 time MIC; type: functional
Staphylococcus aureus [46] = assay: Antibacterial activity methicillin-resistant Staphylococcus aureus 003 assessed as downregulation of fabD expression by qRT-PCR analysis; type: functional, organism-based
Enterococcus [47] = assay: Antibacterial activity vancomycin-resistant Enterococcus under […] condition at pH 5.5 to 9.5; type: functional, organism-based
Staphylococcus aureus [48] = assay: Induction of resistance development in Staphylococcus aureus incubated for 24 hrs treated over 20 serial passages by broth microdilution analysis; type: functional, organism-based
Staphylococcus aureus [49] = assay: Antibacterial activity methicillin-resistant Staphylococcus aureus 003 assessed as downregulation of fabH expression by qRT-PCR analysis; type: functional, organism-based
Staphylococcus aureus [50] = assay: In vivo antibacterial activity against methicilin-resistant Staphylococcus aureus infected in ICR mouse skin infection model assessed as reduction in bacterial burden at 5 mg/kg, ip preadministered with compound for 24 hrs followed by bacterial infection and measured after 3 days; type: functional; design: scale not given: the % may be the effect or the level left; conditions: time 96 hrs
Staphylococcus aureus [51] = assay: Antibacterial activity methicillin-resistant Staphylococcus aureus 003 assessed as inhibition of H2S production at 50 uM; type: functional
Staphylococcus aureus [52] = assay: Bactericidal activity against methicilin-resistant Staphylococcus aureus 003 at 4 times MIC measured after 24 hrs by time kill assay; type: functional, organism-based
Cell membrane [53] = assay: Disruption of bacterial cell membrane in methicilin-resistant Staphylococcus aureus 003 assessed as increase in red fluorescence intensity incubated for 1 hr by DAPI/PI staning based confocal laser microscopic analysis
Staphylococcus aureus [54] = assay: Bactericidal activity against Staphylococcus aureus at 4 times MIC measured after 24 hrs by time kill assay; type: functional, organism-based

C[C@@H](O)[C@H]1C(=O)N2C(C(=O)O)=C(S[C@@H]3CN[C@H](C(=O)N(C)C)C3)[C@H](C)[C@H]12 [MEROPENEM]
MIC (Staphylococcus aureus [1]): 2 µg/mL (≈ 5.22 µM) | MIC (Enterococcus [2]): 8 µg/mL (≈ 20.9 µM) | Activity (Cell membrane [3]): Active | MIC (Staphylococcus aureus [4]): > 128 µg/mL | MIC (Staphylococcus aureus [5]): > 128 µg/mL

CC(C)=CCc1c(-c2ccc(O)cc2O)oc2c3c(cc(O)c2c1=O)OC(C)(C)C=C3 [MORUSIN]
Activity (Cell membrane [6]): inactive | Flu intensity (Staphylococcus aureus [7]): 334 | MBC (Staphylococcus aureus [8]): 16 µg/mL (≈ 38.1 µM) | Activity (Staphylococcus aureus [9]): 0.3 cm2 | Activity (Staphylococcus aureus [10]): Active | Activity (Cell membrane [11]): Dose-Dependent Effect | Activity (Staphylococcus aureus [12]): Dose-Dependent Effect | Activity (Enterococcus [13]): Active | Activity (Staphylococcus aureus [14]): Active | Activity (Staphylococcus aureus [15]): Active | MIC (Staphylococcus aureus [1]): 4 µg/mL (≈ 9.51 µM) | Activity (Staphylococcus aureus [16]): Active | Activity (Staphylococcus aureus [17]): Active | MBC (Staphylococcus aureus [18]): 16 µg/mL (≈ 38.1 µM) | Activity (Staphylococcus aureus [19]): Active | MIC (Enterococcus [2]): 8 µg/mL (≈ 19 µM) | Activity (Cell membrane [20]): Dose-Dependent Effect | inhibition (Staphylococcus aureus [21]): Active | Activity (Staphylococcus aureus [22]): 0.16 cm2 | Flu intensity (Cell membrane [23]): 0.9 | Activity (Staphylococcus aureus [24]): 90% | Activity (Staphylococcus aureus [25]): Active | Activity (Staphylococcus aureus [26]): 80% | Activity (Staphylococcus aureus [27]): Active | fold change (FC) (Cell membrane [28]): 8 | Activity (Staphylococcus aureus [29]): Active | MIC (Escherichia coli): > 512 µg/mL | Activity (Staphylococcus aureus [30]): inactive | fold change (FC) (Cell membrane [31]): 8 | MBC (Enterococcus [32]): 16 µg/mL (≈ 38.1 µM) | Activity (Staphylococcus aureus [33]): Active | Activity (Staphylococcus aureus [34]): 0.1 cm2 | inhibition (INH) (Staphylococcus aureus [35]): 12% | Activity (Cell membrane [36]): Active | Activity (Staphylococcus aureus [37]): Active | Activity (Staphylococcus aureus [38]): Dose-Dependent Effect | Activity (Staphylococcus aureus [39]): Active | MIC (Acinetobacter baumannii): > 512 µg/mL | Activity (Staphylococcus aureus [40]): Active | MBC (Staphylococcus aureus [41]): 8 µg/mL (≈ 19 µM) | Activity (Cell membrane [42]): Active | Activity (Staphylococcus aureus [43]): Dose-Dependent Effect | fold change (FC) (Cell membrane [44]): 32 | MIC (Staphylococcus aureus [4]): 4 µg/mL (≈ 9.51 µM) | Flu intensity (Staphylococcus aureus [45]): 354 | Activity (Staphylococcus aureus [46]): Active | MIC (Staphylococcus aureus [5]): 8 µg/mL (≈ 19 µM) | Activity (Enterococcus [47]): Active | Activity (Staphylococcus aureus [48]): inactive | Activity (Staphylococcus aureus [49]): Active | Activity (Staphylococcus aureus [50]): 50%

CCc1ccc(CCOc2ccc(CC3SC(=O)NC3=O)cc2)nc1 (configuration not stated) [PIOGLITAZONE]
inhibition at 50 µM (Staphylococcus aureus [51]): 54%

CN[C@H](CC(C)C)C(=O)N[C@H]1C(=O)N[C@@H](CC(N)=O)C(=O)N[C@H]2C(=O)N[C@H]3C(=O)N[C@H](C(=O)N[C@H](C(=O)O)c4cc(O)cc(O)c4-c4cc3ccc4O)[C@H](O)c3ccc(c(Cl)c3)Oc3cc2cc(c3O[C@@H]2O[C@H](CO)[C@@H](O)[C@H](O)[C@H]2O[C@H]2C[C@](C)(N)[C@H](O)[C@H](C)O2)Oc2ccc(cc2Cl)[C@H]1O [VANCOMYCIN]
Activity (Staphylococcus aureus [9]): 0.16 cm2 | Activity (Staphylococcus aureus [52]): inactive | MIC (Enterococcus [2]): 64 µg/mL (≈ 44.2 µM) | Activity (Cell membrane [53]): Active | Activity (Staphylococcus aureus [54]): inactive
